From patent publication US20030176368A1, “Synthesis of epothilones, intermediates thereto and analogues thereof” (priority 2001, published 2003)
Where two headings read alike, the source gives them in different places.

What was measured:
[1] = system: CCRF-CEM; test: XTT cytotoxicity assay, CCRF-CEM cells; assay type: cell-based, human
Method: (§1) XTT assay following 72 h inhibition. CCRF-CEM is a human T-cell acute lymphoblastic leukemia cell line. The CCRF-CEM/VBL100, CCRF-CEM/VM1, and CCRF-CEM/Taxol cell lines all overexpress P-glycoprotein and display a multidrug resistance phenotype to MDR-associated oncolytics. (Chou et al. Proc. Natl. Acad. Sci. USA 98:8113, 2001; incorporated herein by reference).
(§2) A typical experiment invovles culturing cells (e.g., CCRF-CEM) at an initial density of 2-5×10^4 cells per ml. They are maintained in a 5% CO2-humidified atmosphere at 37° C. in RPMI medium 1640 (GIBCO/BRL) containing penicillin (100 units/ml), streptomycin (100 μg/ml) (GIBCO/BRL), and 5% heat-inactivated fetal bovine serum. For cells that were grown in suspension (such as CCRF-CEM and its sublines), cytotoxicitiy is measured by using the 2,-3-bis(2-methoxy-4-nitro-5-sulfophenyl)-5 carboxanilide)-2H terazodium hydroxide (XTT)-microculture tetrazonium method in duplicate in 96-well microtiter plates. For both methods, the absorbance of each well is measured with a microplate reader (EL-340, Bio-Tek, Burlington, Vt.). Each run entails six or seven concentrations of the tested drugs. Dose-effect relationship data are analyzed with the median-effect plot.
(§3) The CCRF-CEM human T cells, acute lymphoblastic leukemic cells, its teniposide-resistant subline (CCRF-CEM/VM1) and vinblastine-resistant subline (CCRF-CEM/VBL100) are obtained from W. T. Beck (University of Illinois, Chicago, Ill.).

[2] = system: CCRF-CEM/VBL100; test: XTT cytotoxicity assay, vinblastine-resistant CCRF-CEM/VBL100 cells; assay type: cell-based, human
Method: as §1, §2, §3

[3] = system: CCRF-CEM/VM1; test: XTT cytotoxicity assay, teniposide-resistant CCRF-CEM/VM1 cells; assay type: cell-based, human
Method: as §1, §2, §3

[4] = system: CCRF-CEM/Taxol; test: XTT cytotoxicity assay, taxol-resistant CCRF-CEM/Taxol cells; assay type: cell-based, human
Method: as §1, §2

[5] = system: tubulin; test: Tubulin binding: formation of microtubules in the presence of the compounds; assay type: biochemical; conditions: Example 5 Table 1
Source text: Indeed, the microtubule stabilizing ability closely parallels the observed cytotoxicity data.

[6] = Homo sapiens, CCRF-CEM, Example 5 Table 1, 72 h inhibition, read-out: In vitro Cytotoxicities (IC50) CCRF-CEM(C)
[7] = Homo sapiens, CCRF-CEM, Example 5 Table 1, 72 h inhibition, read-out: In vitro Cytotoxicities (IC50) C/VBL100
[8] = Homo sapiens, CCRF-CEM, Example 5 Table 1, 72 h inhibition, read-out: In vitro Cytotoxicities (IC50) C/Taxol

“10,11-dehydro-12,13-desoxyepothilone B [Epo490]” gave an IC50 ([1]; Example 6 table, XTT assay following 72 h inhibition, read-out: CCRF-CEM (IC50 (μM))) of 0.02 µM, an IC50 ([1]; XTT assay following 72 h inhibition, read-out: In vitro Cytotoxicities (IC50) CCRF-CEM) of 0.025 µM and an IC50 ([2]; Example 6 table, XTT assay following 72 h inhibition, read-out: CCRF-CEM/VBL (IC50 (μM))) of 0.068 µM. It also gave an IC50 ([2]; XTT assay following 72 h inhibition, read-out: In vitro Cytotoxicities (IC50) CCRF-CEM/VBL100) of 0.091 µM, an IC50 ([3]; XTT assay following 72 h inhibition, read-out: In vitro Cytotoxicities (IC50) CCRF-CEM/VM1) of 35 nM and an IC50 ([4]; XTT assay following 72 h inhibition, read-out: In vitro Cytotoxicities (IC50) CCRF-CEM/Taxol) of 32 nM.
With “10,11-dehydro-14,15-[18]desoxyepothilone B [[18]ddEpoB]” the “% Tubulin Binding” value [5] was 51%.
`C/C1=C/C[C@@H](/C(C)=C/c2csc(C)n2)OC(=O)C[C@H](O)C(C)(C)C(=O)[C@H](C)[C@@H](O)[C@@H](C)CC2OC(C)(C)OC12` (stereo partly drawn) [10, 11-ketal-dEpoB] was tested, and the “activity in CCRF-CEM cell lines” value ([1]; Example 12, in words) was “demonstrated activity” and the “activity in CCRF-CEM cell lines resistant to Taxol” value ([4]; Example 12, in words) was “demonstrated activity”.
`C/C1=C/C[C@@H](/C(C)=C/c2csc(C)n2)OC(=O)C[C@H](O)C(C)(C)C(=O)[C@H](C)[C@@H](O)[C@@H](C)C[C@@H](O)[C@@H]1O` [12 (dihydroxy)] was tested, and the IC50 [1, 6] was 1 µM, the IC50 [2, 7] was 99 µM and the IC50 ([3]; Homo sapiens, CCRF-CEM, Example 5 Table 1, 72 h inhibition, read-out: In vitro Cytotoxicities (IC50) C/VM1) was 2350 nM. For the same molecule, the IC50 [4, 8] was 16800 nM and the “% Tubulin Binding” value [5] was 31%.
With `C/C1=C\[C@@H]2C[C@H](C)[C@H](O2)[C@@H](C)C(=O)C(C)(C)[C@@H](O)CC(=O)O[C@H](/C(C)=C/c2csc(C)n2)CC1O` (stereo partly drawn) [13 (THF macrocycle)] the IC50 [1, 6] was 0.761 µM, the IC50 [2, 7] was 8.76 µM and the IC50 [4, 8] was 4240 nM. The “% Tubulin Binding” value [5] was “inactive”.
`C/C1=C/C[C@@H](/C(C)=C/c2csc(C)n2)OC(=O)C[C@H](O)C(C)(C)C(=O)[C@H](C)[C@@H](O)[C@@H](C)CC2CC12` (stereo partly drawn) [15 (cyclopropyl)] was tested, and the IC50 [1, 6] was 0.077 µM, the IC50 [2, 7] was 0.141 µM and the “% Tubulin Binding” value [5] was 84%.
With `CC1=C/C[C@@H](/C(C)=C/c2coc(C)n2)OC(=O)C[C@H](O)C(C)(C)C(=O)[C@H](C)[C@@H](O)[C@@H](C)C\C=C\1` [19-oxa epothilone 490] the IC50 ([1]; Homo sapiens, CCRF-CEM, Example 9 table, read-out: Cell Growth Inhibition (IC50) CCRF-CEM) was 0.015 µM, the IC50 ([2]; Homo sapiens, CCRF-CEM, Example 9 table, read-out: Cell Growth Inhibition (IC50) CCRF-CEM/VBL) was 0.06 µM and the IC50 ([4]; Homo sapiens, CCRF-CEM, Example 9 table, read-out: Cell Growth Inhibition (IC50) CCRF-CEM/taxol) was 40 nM.
